{"source": "patent US20110312934A1", "about": "“2-ALKYL-6-CYCLOAMINO-3-(PYRIDIN-4-YL)IMIDAZO[1,2-B]-PYRIDAZINE DERIVATIVES, PREPARATION THEREOF, AND THERAPEUTIC APPLICATION THEREOF” (SANOFI-AVENTIS, priority 2008, published 2011)", "key": {"[1]": {"target": "T1, casein kinase 1 epsilon (CK1 epsilon) (Homo sapiens, UniProt P49674)", "T1 construct": "Invitrogen Corporation (alternative)", "T1 sequence (P49674 whole entry)": "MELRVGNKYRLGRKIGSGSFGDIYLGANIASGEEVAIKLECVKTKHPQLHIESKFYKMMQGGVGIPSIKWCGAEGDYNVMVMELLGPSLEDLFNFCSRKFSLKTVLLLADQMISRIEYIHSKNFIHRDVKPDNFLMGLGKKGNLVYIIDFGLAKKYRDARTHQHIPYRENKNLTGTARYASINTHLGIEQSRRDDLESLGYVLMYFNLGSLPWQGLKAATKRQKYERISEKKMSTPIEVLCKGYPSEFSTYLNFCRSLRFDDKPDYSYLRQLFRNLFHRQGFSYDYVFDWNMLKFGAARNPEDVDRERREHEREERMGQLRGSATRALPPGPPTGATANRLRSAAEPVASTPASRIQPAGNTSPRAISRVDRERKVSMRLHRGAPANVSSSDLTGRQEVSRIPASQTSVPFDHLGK", "assay": "Filter-plate assay of ATP-33P, inhibition of phosphorylation of casein by CK1 epsilon", "format": "biochemical", "settings": "ATP-33P filtration, cold ATP 10 μM final, 2 hours at ambient temperature, read-out: CK1 epsilon Cl50", "description": "The capacity of the compounds of the invention to inhibit the phosphorylation of casein by casein kinase 1 epsilon and delta may be evaluated according to the procedure described in US 2005/0131012.\nFilter-Plate Assay of ATP-^33P for the Screening of CK1 Epsilon Inhibitors:\nThe effect of the compounds on inhibition of the phosphorylation of casein by the enzyme casein kinase 1 epsilon (CK1 epsilon) is measured, using a casein assay with filtration of ATP-^33P in vitro.\nCasein kinase 1 epsilon (0.58 mg/ml) is obtained via fermentation and purification processes performed according to methods that are well known to those skilled in the art, or may also be obtained from Invitrogen Corporation™ (human CK1 epsilon).\nThe compounds are tested at five different concentrations so as to generate IC50 values, i.e. the concentration at which a compound is capable of inhibiting the enzymatic activity by 50%, or alternatively the percentage of inhibition at a concentration of 10 micromolar.\n“U”-bottomed Falcon plates are prepared by placing 5 μl of solutions of the compounds according to the invention at concentrations of 10, 1, 0.1, 0.01 or 0.001 μM in different wells. The solutions of the compounds according to the invention at these various concentrations are prepared by diluting in a test buffer (50 mM Tris, pH 7.5, […], 2 mM DTT and 1 mM EGTA) a stock solution in DMSO at a concentration of 10 mM. Next, 5 μl of dephosphorylated casein are added to a final concentration of 0.2 μg/μl, 20 μl of CK1 epsilon to a final concentration of 3 ng/μl, and 20 μl of ATP-^33P to a final concentration of 0.02 μCi/μl mixed with cold ATP (10 μM final—approximately 2×10^6 CPM per well). The final total test volume per well is equal to 50 μl.\nThe “U”-bottomed Falcon® test plate mentioned above is vortexed, and then incubated at ambient temperature for 2 hours. After 2 hours, the reaction is stopped by adding an ice-cold solution of 65 μl of ATP (2 mM) prepared in test buffer.\n100 μl of the reaction mixture are then transferred from the “U”-bottomed Falcon® plate into Millipore® MAPH filter plates, preimpregnated with 25 μl of ice-cold 100% TCA. […]\nThe plates are left to dry overnight at ambient temperature. […] The radiation emitted by each well is then measured for 2 minutes in a Packard® Topcount NXT scintillation counter, in which the values of CPM/well are measured.\nThe percentage inhibition of the capacity of the enzyme to phosphorylate the substrate (casein) is determined for each concentration of compound tested. These inhibition data expressed as percentages are used to calculate the IC50 value for each compound compared with the controls.\nThe kinetic studies determined the KM value for ATP as being 21 μM in this test system."}, "human CK1 delta": {"target": "T2, human CK1 delta (Homo sapiens, UniProt P48730)", "T2 construct": "purchased Invitrogen Corporation PV3665", "T2 sequence (P48730 whole entry)": "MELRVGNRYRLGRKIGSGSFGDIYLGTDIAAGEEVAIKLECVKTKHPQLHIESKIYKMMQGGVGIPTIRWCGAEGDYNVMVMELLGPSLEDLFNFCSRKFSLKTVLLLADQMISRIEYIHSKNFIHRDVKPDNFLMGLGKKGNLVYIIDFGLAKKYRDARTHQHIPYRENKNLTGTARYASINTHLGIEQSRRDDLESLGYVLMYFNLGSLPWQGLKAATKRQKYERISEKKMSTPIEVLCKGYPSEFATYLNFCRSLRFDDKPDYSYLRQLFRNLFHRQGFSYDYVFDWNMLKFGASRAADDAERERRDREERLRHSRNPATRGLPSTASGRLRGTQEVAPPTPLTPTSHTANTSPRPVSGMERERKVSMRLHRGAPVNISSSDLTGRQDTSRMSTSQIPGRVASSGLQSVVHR", "assay": "FRET Z'Lyte kinase assay, CK1 delta", "format": "biochemical", "settings": "peptide substrate SER/THR 11 2 μM, ATP 4 times the KM, read-out: CK1 delta Cl50", "from_the_text": "The capacity of the compounds of the invention to inhibit the phosphorylation of casein by casein kinase 1 epsilon and delta may be evaluated using a FRET (Fluorescence Resonance Energy Transfer) fluorescence test with the aid of the Z'Lyte™ kinase assay Kit (reference PV3670; Invitrogen Corporation™) according to the manufacturer's instructions.\nThe casein kinases 1 used are obtained from Invitrogen Corporation (human CK1 epsilon PV3500 and human CK1 delta PV3665).\nA peptide substrate, labelled at both ends with a fluorophore donor group (coumarin) and a fluorophore acceptor group (fluorescein), constituting a FRET system is phosphorylated in the presence of ATP by casein kinase 1 epsilon or delta in the presence of increasing concentrations of compounds of the invention.\nThe mixture is treated with a site-specific protease that specifically cleaves the peptide substrate to form two fluorescent fragments having a large fluorescence emission ratio.\nThe fluorescence observed is thus related to the capacity of the products of the invention to inhibit the phosphorylation of the peptide substrate by casein kinase 1 epsilon or casein kinase 1 delta. […]\nThe emitted fluorescence is measured at wavelengths of 445 and 520 nm (excitation at 400 nm)."}}}
{"smiles": "Cc1nc2ccc(N3CCNCC3)nn2c1-c1ccncc1", "note": "[Compound 1, 2-Methyl-6-piperazin-1-yl-3-pyridin-4-yl-imidazo[1,2-b]pyridazine]", "values": [{"measurement": "IC50", "setting": "[1]", "value": 57, "unit": "nM"}, {"measurement": "IC50", "setting": "human CK1 delta", "value": "< 1", "unit": "nM"}, {"measurement": "melting point", "value": "166 to 168", "unit": "°C"}]}
